One may read the inhibition as how much of the control response was suppressed. Read a low inhibition as a response near the control.

The structures appear in SMILES notation.

This assay addresses T1, human TYR (Homo sapiens, UniProt P14679).
T1 sequence (P14679 19-529): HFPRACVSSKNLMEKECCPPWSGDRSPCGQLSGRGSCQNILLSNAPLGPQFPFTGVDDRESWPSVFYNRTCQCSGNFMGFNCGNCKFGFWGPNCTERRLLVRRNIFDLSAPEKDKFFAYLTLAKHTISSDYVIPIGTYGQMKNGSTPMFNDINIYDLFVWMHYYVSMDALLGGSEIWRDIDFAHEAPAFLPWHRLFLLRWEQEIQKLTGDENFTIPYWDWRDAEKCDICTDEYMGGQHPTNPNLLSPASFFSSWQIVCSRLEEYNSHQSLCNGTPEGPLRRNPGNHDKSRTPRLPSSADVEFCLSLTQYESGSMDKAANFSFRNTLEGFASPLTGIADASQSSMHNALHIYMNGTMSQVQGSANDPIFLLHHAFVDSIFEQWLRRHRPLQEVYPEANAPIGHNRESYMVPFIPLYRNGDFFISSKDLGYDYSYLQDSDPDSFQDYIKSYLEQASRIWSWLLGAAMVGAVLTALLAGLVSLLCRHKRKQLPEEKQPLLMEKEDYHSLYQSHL
Briefly: TYR inhibitory activity by modified MBTH (3-methyl-2-benzothiazolinone hydrazine) method. The conditions noted are these: compound concentration 2 µg/mL; levodopa oxidized by human TYR, MBTH chromogenic reagent, absorbance at 505 nm. Type of assay: biochemical. As to the method: A TYR inhibitory activity of a compound was assessed by a 3-methyl-2-benzothiazolinone hydrazine (MBTH) method modified with reference to the existing report (Journal of Biochemical and Biophysical Methods, 1994, 28 (3): 173-183). With MBTH as a chromogenic reagent, an inhibitory activity of a compound against human TYR was determined as follows: Levodopa was oxidized into L-dopaquinone by the human TYR. MBTH was then allowed to undergo a reaction with the L-dopaquinone to produce a colored product. The reaction was terminated, and the specific absorbance of the colored product at 505 nm was measured.
Regarding `O=C(Nc1nc(-c2ccc(O)cc2O)cs1)C(=O)C1CCCCC1` [2-cyclohexyl-N-(4-(2,4-dihydroxyphenyl)thiazol-2-yl)-2-oxoacetamide], the inhibition at 2 µg/mL turned out to be 65%.
Molecule `O=C(Nc1nc(-c2ccc(O)cc2O)cs1)C(=O)C1CC1` [2-cyclopropyl-N-(4-(2,4-dihydroxyphenyl)thiazol-2-yl)-2-oxoacetamide] came in with an inhibition at 2 µg/mL of 75.3%.
Then `O=C(Nc1nc(-c2ccc(O)cc2O)cs1)C(=O)OC1CC1` [Cyclopropyl 2-((4-(2,4-dihydroxyphenyl)thiazol-2-yl)amino)-2-oxoacetate], with 85.8%; and `CCOC(=O)C(=O)Nc1nc(-c2ccc(O)cc2O)cs1` [Ethyl 2-((4-(2,4-dihydroxyphenyl)thiazol-2-yl)amino)-2-oxoacetate], with 89.6%.
`COC(=O)C(=O)Nc1nc(-c2ccc(O)cc2O)cs1` [Methyl 2-((4-(2,4-dihydroxyphenyl)thiazol-2-yl)amino)-2-oxoacetate]: the inhibition at 2 µg/mL was found to be 88.1%.
For the molecule `O=C(Nc1nc(-c2ccc(O)cc2O)cs1)C(=O)N1CCCC1` [N-(4-(2,4-Dihydroxyphenyl)thiazol-2-yl)-2-oxo-2-(pyrrolidin-1-yl)oxalamide], the inhibition at 2 µg/mL was determined as 93.5%.
Turning to `O=C(Nc1nc(-c2ccc(O)cc2O)cs1)C(=O)N1CCOCC1` [N-(4-(2,4-dihydroxyphenyl)thiazol-2-yl)-2-morpholino-2-oxoacetamide], testing at 2 µg/mL gave an inhibition of 86.1%.
For `CCC(=O)C(=O)Nc1nc(-c2ccc(O)cc2O)cs1` [N-(4-(2,4-dihydroxyphenyl)thiazol-2-yl)-2-oxobutanamide], 2 µg/mL produced 90% inhibition.
Take `CC(=O)C(=O)Nc1nc(-c2ccc(O)cc2O)cs1` [N-(4-(2,4-dihydroxyphenyl)thiazol-2-yl)-2-oxopropanamide]: the inhibition at 2 µg/mL stood at 92.6%.
In the case of `O=C(Nc1nc(-c2ccc(O)cc2O)cs1)C(=O)N1CCSCC1` [N-(4-(2,4-dihydroxyphenyl)thiazol-2-yl)-2-thiomorpholin-2-oxoacetamide] it was 76.5%; in that of `CC(C)C(=O)C(=O)Nc1nc(-c2ccc(O)cc2O)cs1` [N-(4-(2,4-dihydroxyphenyl)thiazol-2-yl)-3-methyl-2-oxobutanamide], 78.5%; in that of `CCN(CC)C(=O)C(=O)Nc1nc(-c2ccc(O)cc2O)cs1` [N-(4-(2,4-dihydroxyphenyl)thiazol-2-yl)-N',N'-diethyloxalamide], 89.2%.
`CN(C)C(=O)C(=O)Nc1nc(-c2ccc(O)cc2O)cs1` [N-(4-(2,4-dihydroxyphenyl)thiazol-2-yl)-N',N'-dimethyloxalamide] gave an inhibition at 2 µg/mL of 90.7%.
`CC(C)NC(=O)C(=O)Nc1nc(-c2ccc(O)cc2O)cs1` [N-(4-(2,4-dihydroxyphenyl)thiazol-2-yl)-N'-isopropyloxalamide] registered an inhibition at 2 µg/mL of 96.7%.

For the origin of these results see patent EP4729513A1, “A-KETO ACID AMIDE OR SUBSTITUTED OXALIC ACID AMIDE ESTER COMPOUND AND COMPOSITION THEREOF” (Nanjing Chempion Biotechnology Co., Ltd., priority 2023, dated 2025).
